Patent US11478474B2, “2-(3′-(hydroxymethyl)-1-methyl-5-((5-(2-methyl-4-(oxetan-3-yl)piperazin-1-yl)pyridin-2-yl)amino)-6-oxo-1,6-dihydro-[3,4′-bipyridin]-2′-yl)-7,7-dimethyl-7,8-dihydro-2H-cyclopenta[4,5]pyrrolo[1,2-a]pyrazin-1(6H)-one as a BTK inhibitor” (HUTCHISON MEDIPHARMA LIMITED, priority 2020, dated 2022)

Legend:
[1] = molecular target: phosphorylated BTK in Ramos cells (Homo sapiens (Human), UniProt Q06187); assay: Determination of phosphorylated BTK in Ramos cells (BTK phospho-Y223 HTRF); format: cell-based; conditions: anti-human IgM + hydrogen peroxide stimulation
Chain of phosphorylated BTK in Ramos cells (Q06187 whole entry): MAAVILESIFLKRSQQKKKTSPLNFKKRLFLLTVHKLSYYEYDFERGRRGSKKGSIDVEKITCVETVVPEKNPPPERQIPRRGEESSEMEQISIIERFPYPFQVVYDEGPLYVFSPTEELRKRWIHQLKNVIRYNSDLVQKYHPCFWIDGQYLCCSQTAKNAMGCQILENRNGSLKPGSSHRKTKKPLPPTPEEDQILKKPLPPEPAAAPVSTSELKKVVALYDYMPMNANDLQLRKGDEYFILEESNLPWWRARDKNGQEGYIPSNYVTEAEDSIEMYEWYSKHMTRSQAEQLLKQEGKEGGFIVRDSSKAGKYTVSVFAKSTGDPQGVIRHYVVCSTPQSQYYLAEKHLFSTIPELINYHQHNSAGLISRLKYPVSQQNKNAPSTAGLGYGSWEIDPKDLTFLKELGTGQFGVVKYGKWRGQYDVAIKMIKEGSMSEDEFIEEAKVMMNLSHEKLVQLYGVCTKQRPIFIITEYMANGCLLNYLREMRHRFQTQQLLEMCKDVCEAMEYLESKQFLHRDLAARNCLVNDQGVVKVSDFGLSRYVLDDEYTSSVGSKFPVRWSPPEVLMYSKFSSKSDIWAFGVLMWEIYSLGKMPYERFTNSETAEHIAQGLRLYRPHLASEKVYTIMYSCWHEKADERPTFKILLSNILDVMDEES
In short: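 BTK Y223 phosphorylation measured by HTRF (665/615 nm) in lysates of Ramos cells. Cells were serum-starved 2 h, exposed to compound for 1 h (final 0.00018–3.0 μM, 0.3% DMSO), then stimulated 10 min with 10 μg/mL anti-IgM and 3.3 mM H2O2. IC50 derived from percent inhibition between unstimulated and stimulated controls.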

BTK recombinant protein = BTK recombinant protein (Homo sapiens (Human), UniProt Q06187); assay: Determination of biochemical BTK (Z'-LYTE kinase assay)
Chain of BTK recombinant protein (Q06187 whole entry): as above
In short: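 Human BTK recombinant kinase (3.32 nM final) was preincubated with compound for 30 min at 4 °C. Reaction ran 1 h at room temperature with Tyr01 FRET peptide (2 μM) and ATP (32 μM); development protease then added. Coumarin 445 nm/fluorescein 520 nm emission ratio (400 nm excitation) gave inhibition across 8 concentrations, 3000–1.37 nM.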

Structure (SMILES) | IC50 [1] [nM] | IC50 (BTK recombinant protein) [nM]
C[C@H]1CN(C2COC2)CCN1c1ccc(Nc2cc(-c3ccnc(-n4ccn5c(cc6ccccc65)c4=O)c3CO)nn(C)c2=O)nc1 [Compound 76] | 60 | 123
Cn1cc(-c2ccnc(-n3ccn4c5c(cc4c3=O)CC(C)(C)C5)c2CO)cc(Nc2ccccc2)c1=O [Compound 77] | 132 | 441
Cn1cc(-c2ccnc(-n3ccn4c5c(cc4c3=O)CC(C)(C)C5)c2CO)cc(Nc2ccncn2)c1=O [Compound 83] | 13 | 13
Cn1cc(-c2ccnc(-n3ccn4c5c(cc4c3=O)CC(C)(C)C5)c2CO)cc(Nc2cccnn2)c1=O [Compound 84] | 11 | 9
Cn1cc(Nc2cc(-c3ccnc(-n4ccn5c6c(cc5c4=O)CC(C)(C)C6)c3CO)cn(C)c2=O)cn1 [Compound 86] | 6 | 16
Cn1cc(-c2ccnc(-n3ccn4c5c(cc4c3=O)CC(C)(C)C5)c2CO)cc(NC(=O)C2CC2)c1=O [Compound 89] | 8 | 11
Cn1cc(-c2ccnc(-n3ccn4c5c(cc4c3=O)CC(C)(C)C5)c2CO)cc(Nc2ccc(F)cn2)c1=O [Compound 90] | 7 | 26
CC[C@H]1CN(C2COC2)CCN1c1ccc(Nc2cc(-c3ccnc(-n4ccn5c6c(cc5c4=O)CC(C)(C)C6)c3CO)cn(C)c2=O)nc1 [Compound 91] | 4 | 17
C[C@H]1CN(C2COC2)CCN1c1ccc(Nc2cc(-c3ccnc(-n4ccn5c6c(cc5c4=O)CCCCC6)c3CO)cn(C)c2=O)nc1 [Compound 92] | 7 | 10
C[C@H]1CN(C2COC2)CCN1c1ccc(Nc2cc(-c3ccnc(-n4ccn5c6c(cc5c4=O)COCC6)c3CO)cn(C)c2=O)nc1 [Compound 93] | 46 | 49
Cn1cc(-c2ccnc(-n3ccn4c5c(cc4c3=O)CC(C)(C)C5)c2CO)cc(Nc2ccc(N3CCN(C4COC4)CC3(C)C)cn2)c1=O [Compound 95] | 3 | 10
C[C@H]1CNCCN1c1ccc(Nc2cc(-c3ccnc(-n4ccn5c6c(cc5c4=O)CC(C)(C)C6)c3CO)cn(C)c2=O)nc1 [Compound 96] | 5 | 7
[2H]C([2H])([2H])n1cc(-c2ccnc(-n3ccn4c5c(cc4c3=O)CC(C)(C)C5)c2CO)cc(Nc2ccc(N3CCN(C4COC4)C[C@@H]3C)cn2)c1=O [Compound 97] | 3 | 9
Cn1nc(Nc2cc(-c3ccnc(-n4ccn5c6c(cc5c4=O)CC(C)(C)C6)c3CO)cn(C)c2=O)cc1C(=O)N1CCOCC1 [Compound 99] | 4 | 6
Cc1nn(-c2nccc(-c3cc(Nc4ccc(N5CCN(C6COC6)C[C@@H]5C)cn4)c(=O)n(C)c3)c2CO)c(=O)c2cc3c(n12)CC(C)(C)C3 [Compound 104] | 6 | 10
C[C@H]1CN(C2COC2)CCN1c1ccc(Nc2cc(-c3ccnc(-n4ccn5c6c(cc5c4=O)CC(C)(C)C6)c3CF)cn(C)c2=O)nc1 [Compound 105] | 11 | 67

Structure (SMILES) | IC50 [1] [nM] | IC50 (BTK recombinant protein) [nM]
Cn1cc(-c2ccnc(-n3ccn4c5c(cc4c3=O)CC(C)(C)C5)c2CO)cc(Nc2ccc(N3CCC4C3CCN4C3COC3)cn2)c1=O (centres unmarked) [Compound 109] | 4 | 20
CC1c2cc(Nc3cc(-c4ccnc(-n5ccn6c7c(cc6c5=O)CC(C)(C)C7)c4CO)cn(C)c3=O)nn2CCN1C1COC1 (centres unmarked) [Compound 112] | 3 | 5
COCC(C)N1CCn2nc(Nc3cc(-c4ccnc(-n5ccn6c7c(cc6c5=O)CC(C)(C)C7)c4CO)cn(C)c3=O)cc2C1 (centres unmarked) [Compound 115] | 10 | 12
COCCN1CCn2nc(Nc3cc(-c4ccnc(-n5ccn6c7c(cc6c5=O)CC(C)(C)C7)c4CO)cn(C)c3=O)cc2[C@@H]1C [Compound 116] | 11 | 10
COCCN1CCn2nc(Nc3cc(-c4ccnc(-n5ccn6c7c(cc6c5=O)CC(C)(C)C7)c4CO)cn(C)c3=O)cc2[C@H]1C [Compound 117] | 7 | 4
Cn1cc(-c2ccnc(-n3ncn4c5c(cc4c3=O)CC(C)(C)C5)c2CO)cc(Nc2cc3n(n2)CCN(C2COC2)C3)c1=O [Compound 122] | 7 | < 1
C[C@H]1CN(C2COC2)C(=O)N1c1ccc(Nc2cc(-c3ccnc(-n4ccn5c6c(cc5c4=O)CC(C)(C)C6)c3CO)cn(C)c2=O)nc1 [Compound 123] | 9 | 13
Cn1cc(-c2ccnc(-n3ccn4c5c(cc4c3=O)CC(C)(C)C5)c2CO)cc(Nc2cc3n(n2)CCN(C2COC2)C3)c1=O [Compound 124] | 7 | 6
Cc1ccc(Nc2cc(-c3ccnc(-n4ccn5c6c(cc5c4=O)CC(C)(C)C6)c3CO)cn(C)c2=O)nc1 [Compound 125] | 21 | 33
COc1ccc(Nc2cc(-c3ccnc(-n4ccn5c6c(cc5c4=O)CC(C)(C)C6)c3CO)cn(C)c2=O)nc1 [Compound 126] | 20 | 26
C[C@@H](CNC1COC1)Nc1ccc(Nc2cc(-c3ccnc(-n4ccn5c6c(cc5c4=O)CC(C)(C)C6)c3CO)cn(C)c2=O)nc1 [Compound 127] | 18 | 10
Cc1ccc(Nc2cc(-c3ccnc(-n4ncn5c6c(cc5c4=O)CC(C)(C)C6)c3CO)cn(C)c2=O)nn1 [Compound 132] | 28 | 51
COc1ccc(Nc2cc(-c3ccnc(-n4ncn5c6c(cc5c4=O)CC(C)(C)C6)c3CO)cn(C)c2=O)nc1 [Compound 133] | 13 | 33
Cn1cc(-c2ccnc(-n3ccn4c5c(cc4c3=O)CCC5)c2CO)cc(Nc2cc3n(n2)CCN(C2COC2)C3)c1=O [Compound 134] | 54 | 59
Cn1cc(-c2ccnc(-n3ccn4c5c(cc4c3=O)CC(C)(C)C5)c2CO)cc(Nc2cc3n(n2)CCN(C#N)C3)c1=O [Compound 135, 2-((2′-(7,7-dimethyl-1-oxo-1,6,7,8-tetrahydro-2H-cyclopenta[4,5]pyrrolo[1,2-a]pyrazin-2-yl)-3′-(hydroxymethyl)-1-methyl-6-oxo-1,6-dihydro-[3,4′-bispyridin]-5-yl)amino)-6,7-dihydropyrazolo[1,5-a]pyrazin-5(4H)-nitrile] | 5 | 8
C[C@H]1c2cc(Nc3cc(-c4ccnc(-n5ccn6c7c(cc6c5=O)CC(C)(C)C7)c4CO)cn(C)c3=O)nn2CCN1C1COC1 [Compound 136] | 5 | 4

More lines, in order of falling IC50 [1], values ahead:

IC50 [1] [nM] | IC50 (BTK recombinant protein) [nM] | Structure (SMILES)
3 | 11 | Cc1cc(Nc2cc(-c3ccnc(-n4ccn5c6c(cc5c4=O)CC(C)(C)C6)c3CO)cn(C)c2=O)no1 [Compound 87]
2 | 5 | C[C@@H]1CN(C2COC2)CCN1c1ccc(Nc2cc(-c3ccnc(-n4ccn5c6c(cc5c4=O)CC(C)(C)C6)c3CO)cn(C)c2=O)nc1 [Compound 80]
2 | 8 | Cn1ccc(Nc2cc(-c3ccnc(-n4ccn5c6c(cc5c4=O)CC(C)(C)C6)c3CO)cn(C)c2=O)n1 [Compound 81]
2 | 6 | Cc1cc(Nc2cc(-c3ccnc(-n4ccn5c6c(cc5c4=O)CC(C)(C)C6)c3CO)cn(C)c2=O)nn1C [Compound 82]
2 | 11 | Cc1ccc(Nc2cc(-c3ccnc(-n4ccn5c6c(cc5c4=O)CC(C)(C)C6)c3CO)cn(C)c2=O)nn1 [Compound 85]
2 | 7 | [2H]C1(N2CCN(c3ccc(Nc4cc(-c5ccnc(-n6ccn7c8c(cc7c6=O)CC(C)(C)C8)c5CO)cn(C)c4=O)nc3)[C@@H](C)C2)COC1 [Compound 94]
2 | 5 | [2H]C(O)c1c(-c2cc(Nc3ccc(N4CCN(C5COC5)C[C@@H]4C)cn3)c(=O)n(C)c2)ccnc1-n1ccn2c3c(cc2c1=O)CC(C)(C)C3 (some centres unmarked) [Compound 100]
2 | 11 | C[C@H]1CN(CC#N)CCN1c1ccc(Nc2cc(-c3ccnc(-n4ccn5c6c(cc5c4=O)CC(C)(C)C6)c3CO)cn(C)c2=O)nc1 [Compound 102]
2 | 12 | COCCN1CCn2nc(Nc3cc(-c4ccnc(-n5ncn6c7c(cc6c5=O)CC(C)(C)C7)c4CO)cn(C)c3=O)cc2C1 [Compound 107]
2 | 8 | COCCN1CCn2nc(Nc3cc(-c4ccnc(-n5ccn6c7c(cc6c5=O)CC(C)(C)C7)c4CO)cn(C)c3=O)cc2C1C (centres unmarked) [Compound 111]
2 | 7 | COCCN1CCn2nc(Nc3cc(-c4ccnc(-n5ncn6c7c(cc6c5=O)CC(C)(C)C7)c4CO)cn(C)c3=O)cc2[C@@H]1C [Compound 119, 2-(3′-(hydroxymethyl)-5-((5-(2-methoxyethyl)-4-methyl-4,5,6,7-tetrahydropyrazolo[1,5-a]pyrazin-2-yl) amido)-1-methyl-6-oxo-1,6-dihydro-[3,4′-bispyridin]-2′-yl)-7,7-dimethyl-7,8-dihydro-2H-cyclopenta[4,5]pyrrolo[1,2-d][1,2,4]triazin-1(6H)-one optically Pure]
1 | 12 | CN(c1ccc(Nc2cc(-c3ccnc(-n4ncn5c6c(cc5c4=O)CC(C)(C)C6)c3CO)cn(C)c2=O)nc1)C1COC1 [Compound 106]
1 | 7 | C[C@H]1CN(C#N)CCN1c1ccc(Nc2cc(-c3ccnc(-n4ccn5c6c(cc5c4=O)CC(C)(C)C6)c3CO)cn(C)c2=O)nc1 [Compound 108]
1 | 5 | CC1c2cc(Nc3cc(-c4ccnc(-n5ncn6c7c(cc6c5=O)CC(C)(C)C7)c4CO)cn(C)c3=O)nn2CCN1C1COC1 (centres unmarked) [Compound 118]
